According to PMC10786919, “Design-rules for stapled peptides with in vivo activity and their application to Mdm2/X antagonists” (Nature Communications, 2024):
pEC50: −log10 of the molar value. In brackets after ≈: the same amount, converted by molar mass. Where two headings read alike, the source gives them in different places. Positions of bridges follow the written chain, without caps; N, C: chain ends. Non-standard residues stand in square brackets, D forms with d. Residues, ends and D or L forms follow the SMILES beside them. Lys(N3) = [N-]=[N+]=NCCCC[C@H](N)C(=O)O; R8 = C=CCCCCCC[C@@](C)(N)C(=O)O; Cba = N[C@@H](CC1CCC1)C(=O)O; S5 = C=CCCC[C@](C)(N)C(=O)O; βAla = NCCC(=O)O

What was measured:
[1] = Lactate dehydrogenase (LDH) release assay; type: cell-based
Summary of the method: (§1)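 HCT116 cells stably carrying a p53-responsive β-lactamase reporter were seeded at 8000 cells per well with a final DMSO level of 0.5%. Membrane integrity was assessed by lactate dehydrogenase release using a homogeneous fluorometric kit. Values are geometric means of at least three biological replicates.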

[2] = Solubility assay (kinetic solubility, PBS pH 7); type: physicochemical; settings: pH 7, PBS; for solubility kinetic: pH 7, aqueous buffer, kinetic from dmso stock, read-out: Solubility
Summary of the method: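 Quantitation uses an external standard at 100 µM, prepared from 10 mM stock in acetonitrile:methanol:DMSO (10:80:10). Solubility (µM) = (peak area of sample ÷ peak area of standard) × standard concentration.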

in vitro = experiment: in vitro
Summary of the method: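 Azido-peptide permeability was read as loss of NanoBRET signal (donor 450 nm, acceptor 610 nm) after adding NanoBret618-azide at 10 μM final.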

EPSA = type: physicochemical
[3] = Experimental LogD (partition coefficient); settings: for logD: not stated, Partition Coeff LogD
HCT116 cells = experiment: Lactate dehydrogenase (LDH) release assay; type: cell-based
Summary of the method: as §1

[4] = Nanoclick permeability assay EC50

Structure (SMILES) | pEC50 ([1]; LDH: Cytotoxicity assay: EC50) | solubility kinetic [2] | cell entry EC50 (in vitro; [4]) | EPSA (EPSA; EPSA) | logD [3] | pEC50 ([1]; 0% FBS 4Hr, read-out: LDH: Cytotoxicity assay: EC50) | pEC50 ([1]; 10% FBS 16Hr, read-out: LDH: Cytotoxicity assay: EC50) | LDH: Cytotoxicity assay: % Effect (HCT116 cells; 0% FBS 4Hr) | LDH: Cytotoxicity assay: % Effect (HCT116 cells; 10% FBS 16Hr) | cell entry EC50 (in vitro) | LDH: Cytotoxicity assay: % Effect (HCT116 cells) | Partition Coeff LogD [3] | Solubility [2] | EPSA (EPSA)
CC(=O)N[C@@H](CCCCN=[N+]=[N-])C(=O)NCCC(=O)N[C@@H](CC(C)C)C(=O)N[C@H](C(=O)N[C@@H](Cc1ccccc1)C(=O)N[C@]1(C)CCCCC#CC#CCCC[C@@](C)(C(=O)N[C@@H](CO)C(=O)N[C@@H](C)C(=O)N[C@@H](C)C(N)=O)NC(=O)[C@H](CC2CCC2)NC(=O)[C@H](CCC(N)=O)NC(=O)[C@H](C)NC(=O)[C@H](Cc2c[nH]c3ccccc23)NC(=O)[C@H](Cc2ccc(O)cc2)NC(=O)[C@H](CCC(=O)O)NC1=O)[C@@H](C)O [MP-806] | < 4.29 | 34 µM (≈ 66.8 µg/mL) | 5580 nM | 203 A^2 | 2.44 | – | – | – | – | – | – | – | – | –
CC(=O)N[C@@H](CCCCN=[N+]=[N-])C(=O)NCCC(=O)N[C@@H](CC(C)C)C(=O)N[C@H](C(=O)N[C@@H](Cc1ccccc1)C(=O)N[C@]1(C)CCCCCCC=CCCC[C@@](C)(C(=O)N[C@@H](CCC(=O)O)C(=O)N[C@@H](CCC(=O)O)C(=O)N[C@@H](C)C(=O)N[C@@H](C)C(=O)N[C@@H](C)C(=O)N[C@@H](C)C(N)=O)NC(=O)[C@H](CC2CCC2)NC(=O)[C@H](CCC(N)=O)NC(=O)[C@H](CCC(=O)O)NC(=O)[C@H](Cc2c[nH]c3ccccc23)NC(=O)[C@H](Cc2ccc(O)cc2)NC(=O)[C@H](CCC(=O)O)NC1=O)[C@@H](C)O [MP-3685, AZIDE-ATSP-7041 (A8E, EEAAAA TAIL)] (Ac-[Lys(N3)][βAla]LTF[R8]EYWEQ[Cba][S5]EEAAAA-NH2; staple 6-13) | – | 150 µM (≈ 351 µg/mL) | – | 195 A^2 | 1.99 | < 4.29 | < 4.29 | 10% | -3.573% | 1260 nM | – | – | – | –
CC(=O)N[C@@H](CCCCN=[N+]=[N-])C(=O)NCCC(=O)N[C@@H](CC(C)C)C(=O)N[C@H](C(=O)N[C@@H](Cc1ccccc1)C(=O)N[C@]1(C)CCCCCCC=CCCC[C@@](C)(C(=O)N[C@@H](CO)C(=O)N[C@@H](C)C(=O)N[C@@H](C)C(N)=O)NC(=O)[C@H](CCC(N)=O)NC(=O)[C@H](Cc2ccc(O)cc2)NC(=O)[C@H](Cc2c[nH]c3ccccc23)NC(=O)[C@H](CC2CCC2)NC(=O)[C@H](CCC(=O)O)NC(=O)[C@H](C)NC1=O)[C@@H](C)O [MP-205] (Ac-[Lys(N3)][βAla]LTF[R8]AE[Cba]WYQ[S5]SAA-NH2; staple 6-13) | < 4.29 | 16 µM (≈ 31.5 µg/mL) | 276 nM | 198 A^2 | 3.02 | – | – | – | – | – | -2.394% | – | – | –
CC(=O)N[C@@H](CCCCN=[N+]=[N-])C(=O)NCCC(=O)N[C@@H](CC(C)C)C(=O)N[C@H](C(=O)N[C@@H](Cc1ccccc1)C(=O)N[C@]1(C)CCCCCCC=CCCC[C@@](C)(C(=O)N[C@@H](CO)C(=O)N[C@@H](C)C(=O)N[C@@H](C)C(N)=O)NC(=O)[C@H](CC2CCC2)NC(=O)[C@H](C)NC(=O)[C@H](CCC(N)=O)NC(=O)[C@H](Cc2c[nH]c3ccccc23)NC(=O)[C@H](Cc2ccc(O)cc2)NC(=O)[C@H](CCC(=O)O)NC1=O)[C@@H](C)O [MP-4203] (Ac-[Lys(N3)][βAla]LTF[R8]EYWQA[Cba][S5]SAA-NH2; staple 6-13) | < 4.29 | 179 µM (≈ 353 µg/mL) | 1200 nM | 190 A^2 | 2.71 | – | – | – | – | – | 15.26% | – | – | –
CC(=O)N[C@@H](CCCCN=[N+]=[N-])C(=O)N[C@@H](CCCCN)C(=O)N[C@@H](CCCCN)C(=O)N[C@@H](CC(C)C)C(=O)N[C@H](C(=O)N[C@@H](Cc1ccccc1)C(=O)N[C@]1(C)CCCCCCC=CCCC[C@@](C)(C(=O)N[C@@H](CO)C(=O)N[C@@H](C)C(=O)N[C@@H](C)C(N)=O)NC(=O)[C@H](CC2CCC2)NC(=O)[C@H](CCC(N)=O)NC(=O)[C@H](C)NC(=O)[C@H](Cc2c[nH]c3ccccc23)NC(=O)[C@H](Cc2ccc(O)cc2)NC(=O)[C@H](CCC(=O)O)NC1=O)[C@@H](C)O [MP-026] | < 4.30 | 3 µM (≈ 6.47 µg/mL) | 1030 nM | 213 A^2 | – | – | – | – | – | – | 25.62% | Poorly Behaved | – | –
CC(=O)N[C@@H](CCCCN=[N+]=[N-])C(=O)NCCC(=O)N[C@@H](CC(C)C)C(=O)N[C@H](C(=O)N[C@@H](CCC(=O)O)C(=O)N[C@]1(C)CCCCCCC=CCCC[C@@](C)(C(=O)N[C@@H](CO)C(=O)N[C@@H](C)C(=O)N[C@@H](C)C(N)=O)NC(=O)[C@H](CC2CCC2)NC(=O)[C@H](CCC(N)=O)NC(=O)[C@H](C)NC(=O)[C@H](Cc2c[nH]c3ccccc23)NC(=O)[C@H](Cc2ccc(O)cc2)NC(=O)[C@H](Cc2ccccc2)NC1=O)[C@@H](C)O [MP-123] (Ac-[Lys(N3)][βAla]LTE[R8]FYWAQ[Cba][S5]SAA-NH2; staple 6-13) | < 4.29 | 2 µM (≈ 3.94 µg/mL) | 682 nM | 197 A^2 | 2.66 | – | – | – | – | – | – | – | – | –
CC(=O)N[C@@H](CCCCN=[N+]=[N-])C(=O)NCCC(=O)N[C@@H](CC(C)C)C(=O)N[C@@H](CC1CCC1)C(=O)N[C@@H](Cc1ccc(O)cc1)C(=O)N[C@]1(C)CCCCCCC=CCCC[C@@](C)(C(=O)N[C@@H](C)C(=O)N[C@@H](C)C(=O)N[C@@H](C)C(N)=O)NC(=O)[C@H](Cc2ccccc2)NC(=O)[C@H](Cc2c[nH]c3ccccc23)NC(=O)[C@H](CCC(=O)O)NC(=O)[C@H]([C@@H](C)O)NC(=O)[C@H](CCC(N)=O)NC(=O)[C@H](CO)NC1=O [MP-4204] (Ac-[Lys(N3)][βAla]L[Cba]Y[R8]SQTEWF[S5]AAA-NH2; staple 6-13) | < 4.29 | – | 669 nM | 191 A^2 | – | – | – | – | – | – | 16.98% | Poorly Behaved | Poorly Behaved | –
CC(=O)N[C@@H](CCCCN=[N+]=[N-])C(=O)N[C@@H](CC(C)C)C(=O)N[C@H](C(=O)N[C@@H](Cc1ccccc1)C(=O)N[C@]1(C)CCCCCCC=CCCC[C@@](C)(C(=O)N[C@@H](CCC(=O)O)C(N)=O)NC(=O)[C@H](CC2CCC2)NC(=O)[C@H](CCC(N)=O)NC(=O)[C@H](C)NC(=O)[C@H](Cc2c[nH]c3ccccc23)NC(=O)[C@H](Cc2ccc(O)cc2)NC(=O)[C@H](CCC(=O)O)NC1=O)[C@@H](C)O [MP-4008] (Ac-[Lys(N3)]LTF[R8]EYWAQ[Cba][S5]E-NH2; staple 5-12) | < 4.30 | 23 µM (≈ 41.4 µg/mL) | – | – | 2.48 | – | – | – | – | – | -0.7368% | – | – | Poorly Behaved
CC(=O)N[C@@H](CCCNC(=N)N)C(=O)NCCCCCC(=O)N[C@@H](CC(C)C)C(=O)N[C@H](C(=O)N[C@@H](Cc1ccccc1)C(=O)N[C@]1(C)CCCCCCC=CCCC[C@@](C)(C(=O)N[C@@H](CO)C(=O)N[C@@H](C)C(=O)N[C@@H](C)C(N)=O)NC(=O)[C@H](CC2CCC2)NC(=O)[C@H](CCC(N)=O)NC(=O)[C@H](C)NC(=O)[C@H](Cc2c[nH]c3ccccc23)NC(=O)[C@H](Cc2ccc(O)cc2)NC(=O)[C@H](CCC(=O)O)NC1=O)[C@@H](C)O [MP-4001] | < 4.30 | 4 µM (≈ 8.06 µg/mL) | – | 207 A^2 | 2.64 | – | – | – | – | – | -1.283% | – | – | –
CC(=O)N[C@@H](CCCCN=[N+]=[N-])C(=O)NCCC(=O)N[C@@H](CC(C)C)C(=O)N[C@H](C(=O)N[C@@H](Cc1ccccc1)C(=O)N[C@@]1(C)CCCCCCC=CCCC[C@@](C)(C(=O)N[C@@H](CO)C(=O)N[C@@H](C)C(=O)N[C@@H](C)C(N)=O)NC(=O)[C@H](CC2CCC2)NC(=O)[C@H](CCC(N)=O)N(C)C(=O)[C@H](C)NC(=O)[C@H](Cc2c[nH]c3ccccc23)NC(=O)[C@H](Cc2ccc(O)cc2)NC(=O)[C@H](CCC(=O)O)NC1=O)[C@@H](C)O [MP-297] | < 4.29 | 108 µM (≈ 213 µg/mL) | 1530 nM | 183 A^2 | 2.5 | – | – | – | – | – | – | – | – | –
CC(=O)N[C@@H](CCCCN=[N+]=[N-])C(=O)NCCC(=O)N[C@H](C(=O)N[C@@H](CO)C(=O)N[C@@H](Cc1ccccc1)C(=O)N[C@]1(C)CCCCCCC=CCCC[C@@](C)(C(=O)N[C@@H](CO)C(=O)N[C@@H](C)C(=O)N[C@@H](C)C(N)=O)NC(=O)[C@H](CC(C)C)NC(=O)[C@H](CC(C)C)NC(=O)[C@H](C)NC(=O)[C@H](Cc2c[nH]c3ccccc23)NC(=O)[C@H](Cc2ccc(O)cc2)NC(=O)[C@H](CCC(=O)O)NC1=O)[C@@H](C)O [MP-686] | < 4.29 | 2 µM (≈ 3.83 µg/mL) | 38.5 nM | 193 A^2 | 2.7 | – | – | – | – | – | – | – | – | –
CC(=O)N[C@@H](CS)C(=O)N[C@@H](CCCCN=[N+]=[N-])C(=O)NCCC(=O)N[C@@H](C)C(=O)N[C@H](C(=O)N[C@@H](Cc1ccccc1)C(=O)N[C@]1(C)CCCCCCC=CCCC[C@@](C)(C(=O)N[C@@H](C)C(=O)N[C@@H](C)C(=O)N[C@@H](C)C(N)=O)NC(=O)[C@H](CC2CCC2)NC(=O)[C@H](C)NC(=O)[C@H](C)NC(=O)[C@H](Cc2c[nH]c3ccccc23)NC(=O)[C@H](Cc2ccc(O)cc2)NC(=O)[C@H](C)NC1=O)[C@@H](C)O [MP-987] (Ac-C[Lys(N3)][βAla]ATF[R8]AYWAA[Cba][S5]AAA-NH2; staple 7-14) | < 4.30 | 12 µM (≈ 22.8 µg/mL) | 217 nM | 180 A^2 | 1.12 | – | – | – | – | – | – | – | – | –
